Measured values from patent US8153400B1, “Nucleic acids encoding a mutT domain-containing polypeptide” (Beth Israel Deaconess Medical Center, Inc., priority 1999, dated 2012).
“Also recorded” adds a separate entry of the source.

Assays:
TrpC7 = target: T1, TrpC7 (Homo sapiens, UniProt O94759, Q1189R); assay: Whole-cell patch-clamp of membrane currents in tetracycline-inducible HEK293 cells expressing FLAG-TrpC7; assay type: cell-based; conditions: for gating of TrpC7 / induced plasma membrane currents: 100 μM in patch pipette, currents at -80 mV; for gating of TrpC7 / induced plasma membrane currents / gating of TrpC7: after tetracycline induction
T1 construct: expressed in transfected cells; host or cells: HEK293 cells expressing the tetracycline repressor (pcDNA6/TR); construct in pcDNA4/TO
T1 sequence (O94759 3-1503 Q1189R): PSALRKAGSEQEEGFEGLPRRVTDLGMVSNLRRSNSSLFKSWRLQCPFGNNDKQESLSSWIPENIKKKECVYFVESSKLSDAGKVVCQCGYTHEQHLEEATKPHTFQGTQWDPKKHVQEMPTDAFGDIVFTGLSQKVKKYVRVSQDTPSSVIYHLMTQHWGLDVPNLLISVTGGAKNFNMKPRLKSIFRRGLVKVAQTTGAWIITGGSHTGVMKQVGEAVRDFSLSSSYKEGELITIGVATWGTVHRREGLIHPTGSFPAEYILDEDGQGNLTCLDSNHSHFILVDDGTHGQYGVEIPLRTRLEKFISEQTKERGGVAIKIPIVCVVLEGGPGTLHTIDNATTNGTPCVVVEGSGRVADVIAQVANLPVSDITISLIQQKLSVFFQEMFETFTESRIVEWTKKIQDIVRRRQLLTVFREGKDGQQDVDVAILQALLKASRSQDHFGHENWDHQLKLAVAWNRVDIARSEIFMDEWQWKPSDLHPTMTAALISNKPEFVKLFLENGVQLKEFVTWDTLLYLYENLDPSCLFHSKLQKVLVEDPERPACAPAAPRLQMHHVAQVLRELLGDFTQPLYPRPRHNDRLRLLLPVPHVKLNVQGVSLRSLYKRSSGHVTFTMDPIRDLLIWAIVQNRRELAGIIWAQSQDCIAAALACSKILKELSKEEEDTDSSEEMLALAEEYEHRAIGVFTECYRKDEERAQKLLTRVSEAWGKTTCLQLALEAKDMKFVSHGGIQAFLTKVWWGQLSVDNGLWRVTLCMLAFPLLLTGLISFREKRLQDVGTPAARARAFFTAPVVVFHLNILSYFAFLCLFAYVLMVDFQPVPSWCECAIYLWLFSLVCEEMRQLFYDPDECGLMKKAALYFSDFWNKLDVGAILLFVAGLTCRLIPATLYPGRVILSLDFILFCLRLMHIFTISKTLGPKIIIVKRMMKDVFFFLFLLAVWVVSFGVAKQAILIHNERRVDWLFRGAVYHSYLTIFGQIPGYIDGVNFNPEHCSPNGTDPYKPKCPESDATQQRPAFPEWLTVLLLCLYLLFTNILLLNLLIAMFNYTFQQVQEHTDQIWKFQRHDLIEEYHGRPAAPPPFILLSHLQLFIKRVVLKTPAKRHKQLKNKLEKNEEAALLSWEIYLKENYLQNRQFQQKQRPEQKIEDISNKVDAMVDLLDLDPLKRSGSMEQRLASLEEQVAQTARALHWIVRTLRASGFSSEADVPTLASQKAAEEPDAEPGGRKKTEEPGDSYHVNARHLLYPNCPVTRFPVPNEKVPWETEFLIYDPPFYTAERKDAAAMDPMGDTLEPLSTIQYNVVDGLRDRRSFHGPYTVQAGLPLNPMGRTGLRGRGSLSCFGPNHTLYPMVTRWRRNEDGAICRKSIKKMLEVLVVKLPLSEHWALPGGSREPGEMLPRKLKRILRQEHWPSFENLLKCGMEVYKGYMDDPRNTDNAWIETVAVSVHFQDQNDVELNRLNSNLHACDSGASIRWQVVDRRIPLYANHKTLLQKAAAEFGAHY
Description: Wild type and tetracycline-inducible HEK293 FLAG-TrpC7 expressing cells were cultured at 37° C./5% CO2 in DMEM supplemented with 10% FBS and 2 mM glutamine. The medium was supplemented with blasticidin (5 μg/ml; Invitrogen) and zeocin (0.4 mg/ml; Invitrogen). Cells were resuspended in media containing 1 μg/ml tetracycline (Invitrogen) 24 hours before patch-clamp experiments.
For patch-clamp experiments, coverslips were transferred to the recording chamber and kept in a standard modified Ringer's solution of the following composition (in mM): NaCl 145, KCl 2.8, CaCl2 1, MgCl2 2, glucose 10, Hepes-NaOH 10, pH 7.2. Intracellular pipette-filling solutions contained (in mM): Cs-glutamate 145, NaCl 8, MgCl2 1, Cs-BAPTA 10, pH 7.2 adjusted with CsOH. […] The agonists were dissolved in the standard intracellular solution. Ionomycin (Sigma) was added to the extracellular standard solution.
Patch-clamp experiments were performed in the tight-seal whole-cell configuration at 21-25° C. High-resolution current recordings were acquired by a computer-based patch-clamp amplifier system (EPC-9, HEKA, Lambrecht, Germany). […] Immediately following establishment of the whole-cell configuration, voltage ramps of 50 ms duration spanning the voltage range of −100 to +100 mV were delivered from a holding potential of 0 mV at a rate of 0.5 Hz over a period of 200 to 400 seconds. All voltages were corrected for a liquid junction potential of 10 mV between external and internal solutions. Currents were filtered at 2.9 kHz and digitized at 100 μs intervals. Capacitive currents and series resistance were determined and corrected before each voltage ramp using the automatic capacitance compensation of the EPC-9. For analysis, the very first ramps were digitally filtered at 2 kHz, pooled and used for leak-subtraction of all subsequent current records. The low-resolution temporal development of currents at a given potential was extracted from the leak-corrected individual ramp current records by measuring the current amplitudes at voltages of −80 mV or +80 mV.

[1] = tested on: non-selective plasma membrane ion channel in ascidian oocytes; conditions: cited from earlier work
NUDT9 (mutTCCH-1) = target: T2, NUDT9 (mutTCCH-1) (Homo sapiens, UniProt Q9BW91); assay: Nudix type enzyme assay, substrate screen with recombinant NUDT9; assay type: biochemical; conditions: panel of nucleoside diphosphate derivatives; products AMP and ribose-5-phosphate
T2 construct: made in house; host or cells: E. coli BL21 (DE3), pET-24d
T2 sequence (Q9BW91 47-350): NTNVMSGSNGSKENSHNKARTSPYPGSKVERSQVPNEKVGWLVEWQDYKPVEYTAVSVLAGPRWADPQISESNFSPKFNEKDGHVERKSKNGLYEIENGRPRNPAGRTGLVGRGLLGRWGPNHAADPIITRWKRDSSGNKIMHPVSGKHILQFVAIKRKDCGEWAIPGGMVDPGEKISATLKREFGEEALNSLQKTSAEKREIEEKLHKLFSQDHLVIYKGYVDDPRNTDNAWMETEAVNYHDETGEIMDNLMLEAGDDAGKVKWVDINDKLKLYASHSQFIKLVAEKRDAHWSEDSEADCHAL
Description: (§1) BL21 (DE3) cells containing the respective expression plasmids were grown at 37° C. in LB broth on a shaker to an A600 of about 0.6 and induced by the addition of isopropyl-β-D-thiogalactopyranoside to a concentration of 1 mM. The cells were allowed to grow for an additional 4 h, harvested, washed by suspension in isotonic saline, centrifuged in pre-weighed centrifuge tubes, and the packed cells were stored at −80° C. […] In the case of NUDT9, enzyme was extracted in the freeze-thaw fraction and ammonium sulfate was added to 35% final concentration. The precipitate was discarded after centrifugation and ammonium sulfate was added to the supernatant to a final concentration of 50%. The precipitate was collected by centrifugation, dissolved then chromatographed, then chromatographed on a gel filtration column (Sephadex G-100). […]
(§2) Enzyme Assay—Enzyme velocities were quantified by measuring the conversion of a phosphatase-insensitive substrate, ADP-ribose, to the phosphatase-sensitive products, AMP and ribose-5-phosphate. The liberated inorganic orthophosphate was measured by the procedure of Ames and Dubin (Ames, B. N., and Dubin, D. T., J. Biol. Chem. 1960, 235:769-775). […] After 30 min at 37° C., the reaction was terminated by the addition of EDTA and inorganic orthophosphate was measured.
(§3) Km and Vmax were calculated by non-linear regression analysis of Lineweaver-Burke plots.

[2] = target: T3, TrpC7 NUDT9 homology region (Homo sapiens, UniProt O94759); assay: Nudix type enzyme assay (ADP-ribose hydrolysis, liberated orthophosphate), TrpC7 NUDT9 homology region; assay type: biochemical; conditions: ADP-ribose as substrate
T3 construct: an NcoI site, an artificial start codon, amino acids 1197-1503, a stop codon, and a 3′ NotI site; Met from artificial start codon (N); made in house; host or cells: E. coli BL21 (DE3), pET-24d
T3 sequence (O94759 1197-1503): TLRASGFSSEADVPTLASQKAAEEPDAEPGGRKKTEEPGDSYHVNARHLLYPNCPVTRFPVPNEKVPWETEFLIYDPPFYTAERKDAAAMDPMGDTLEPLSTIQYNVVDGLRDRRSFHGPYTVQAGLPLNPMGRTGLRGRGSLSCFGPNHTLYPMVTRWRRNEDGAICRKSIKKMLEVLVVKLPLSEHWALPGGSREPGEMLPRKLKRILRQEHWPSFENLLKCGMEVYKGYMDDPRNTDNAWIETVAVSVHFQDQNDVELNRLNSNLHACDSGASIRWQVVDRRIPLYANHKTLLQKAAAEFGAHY
Description: as §1, §2, §3

[3] = intracellular perfusion, current magnitude and latency

## Nc1ncnc2c1ncn2[C@@H]1O[C@H](COP(=O)(O)OP(=O)(O)O[C@H]2O[C@H](CO)[C@@H](O)[C@H](O)[C@H]2O)[C@@H](O)[C@H]1O [ADP-glucose]
TrpC7
  gating of TrpC7 / induced plasma membrane currents: no detectable gating

## Nc1ncnc2c1ncn2[C@@H]1O[C@H](COP(=O)(O)OP(=O)(O)O[C@H]2O[C@H](CO)[C@@H](O)[C@H](O)[C@@H]2O)[C@@H](O)[C@H]1O [ADP-mannose]
TrpC7
  gating of TrpC7 / induced plasma membrane currents: no detectable gating

## Nc1ncnc2c1ncn2[C@@H]1O[C@H](COP(=O)(O)OP(=O)(O)OC[C@H]2OC(O)[C@H](O)[C@@H]2O)[C@@H](O)[C@H]1O (some centres unmarked) [ADP-ribose, Adenosine 5-diphospho (ADP)-ribose]
[1]
  concentration that gates the currents: ≥ 10 nM
TrpC7
  gating of TrpC7 / induced plasma membrane currents: extremely large currents are induced; also recorded: large inward currents
TrpC7; 300 μM, tetracycline-induced cells, -80 mV and +80 mV
  currents induced by intracellular perfusion: almost linear cationic currents with slight outward rectification
TrpC7; [3]
  concentration at which TrpC7 activation begins to occur: 60-100 μLM
  concentration at which TrpC7 activation saturates: around 300 μM
TrpC7; peak current amplitudes at -80 mV, 10 μM to 1 mM, read-out: apparent KD of dose-response curve for gating of TrpC7
  Kd: 90 µM
TrpC7; without tetracycline induction (no FLAG-TrpC7 expression)
  effect on plasma membrane currents: no detectable effect
NUDT9 (mutTCCH-1)
  substrate specificity of recombinant NUDT9: highly specific ADP-ribose pyrophosphatase
[2]
  activity relative to that observed for NUDT9: approximately 1%
[2]; E. coli expressed protein
  Vmax (specific activity): 0.1 μmol/min/mg protein

## Nc1nc2c(ncn2[C@@H]2O[C@H](COP(=O)(O)OP(=O)(O)O[C@H]3O[C@H](CO)[C@@H](O)[C@H](O)[C@H]3O)[C@@H](O)[C@H]2O)c(=O)[nH]1 [GDP-glucose, guanosine 5-diphospho (GDP)-glucose]
TrpC7
  gating of TrpC7 / induced plasma membrane currents: no detectable gating

## Nc1nc2c(ncn2[C@@H]2O[C@H](COP(=O)(O)OP(=O)(O)O[C@H]3O[C@H](CO)[C@@H](O)[C@H](O)[C@@H]3O)[C@@H](O)[C@H]2O)c(=O)[nH]1 [GDP-mannose]
TrpC7
  gating of TrpC7 / induced plasma membrane currents: no detectable gating

## N=c1c2ncn3c2ncn1[C@@H]1O[C@H](COP(=O)(O)OP(=O)(O)OC[C@H]2O[C@@H]3[C@H](O)[C@@H]2O)[C@@H](O)[C@H]1O [cyclic ADP-ribose, cyclic ADP-Ribose]
TrpC7
  gating of TrpC7 / induced plasma membrane currents: no detectable gating

## O=P(O)(O)O[C@@H]1[C@H](O)[C@H](O)[C@@H](OP(=O)(O)O)[C@H](OP(=O)(O)O)[C@H]1O [inositol-1,4,5-trisphosphate, inositol 1,4,5-trisphosphate]
TrpC7; 20 μM in patch pipette
  gating of TrpC7: no detectable gating

## C[C@H](CCC(=O)O)C[C@H](C)C[C@H](C)C(=O)/C=C(\O)[C@H](C)C[C@H](C)C/C=C/[C@@H](C)[C@@H](O)[C@@H](C)[C@@H](O)C[C@@H]1CC[C@@](C)([C@H]2CC[C@@](C)([C@@H](C)O)O2)O1 [ionomycin, Ionomycin]
TrpC7; 10 μM, added to the extracellular solution
  gating of TrpC7: no detectable gating
